{
  "source": "ChEMBL document CHEMBL1821675",
  "about": "“The selective P-TEFb inhibitor CAN508 targets angiogenesis” (Eur J Med Chem, 2011)",
  "key": {"[1]": {"system": "HUVEC", "assay": "Antiangiogenic activity against HUVEC cells assessed as inhibition of VEGF-induced cell migration-associated wound closure after 16 hrs by microscopic analysis", "assay_type": "functional, cell-based", "details": "Homo sapiens"}, "[2]": {"target": "Serine/threonine-protein kinase BRSK2 (Homo sapiens) (UniProt Q8IWQ3)", "sequence (Q8IWQ3 whole entry)": "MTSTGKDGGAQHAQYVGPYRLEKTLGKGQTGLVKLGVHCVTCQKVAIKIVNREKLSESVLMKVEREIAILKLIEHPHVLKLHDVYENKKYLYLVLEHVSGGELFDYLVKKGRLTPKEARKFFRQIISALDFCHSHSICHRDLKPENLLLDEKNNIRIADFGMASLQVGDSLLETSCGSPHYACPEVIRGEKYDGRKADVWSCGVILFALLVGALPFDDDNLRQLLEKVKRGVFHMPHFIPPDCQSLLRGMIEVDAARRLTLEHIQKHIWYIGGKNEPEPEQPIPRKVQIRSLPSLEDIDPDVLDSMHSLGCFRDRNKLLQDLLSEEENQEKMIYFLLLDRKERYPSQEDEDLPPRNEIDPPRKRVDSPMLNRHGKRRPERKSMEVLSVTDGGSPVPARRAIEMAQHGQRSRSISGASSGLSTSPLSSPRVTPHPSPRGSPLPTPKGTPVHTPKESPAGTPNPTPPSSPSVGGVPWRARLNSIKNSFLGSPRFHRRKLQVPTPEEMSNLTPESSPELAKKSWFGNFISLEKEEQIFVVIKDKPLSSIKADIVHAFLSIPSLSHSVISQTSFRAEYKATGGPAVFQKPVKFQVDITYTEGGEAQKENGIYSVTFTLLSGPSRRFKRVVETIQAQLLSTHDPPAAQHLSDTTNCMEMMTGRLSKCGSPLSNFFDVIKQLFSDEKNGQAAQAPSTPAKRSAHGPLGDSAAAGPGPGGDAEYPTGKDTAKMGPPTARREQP", "assay": "Inhibition of BRSK2 assessed as residual activity at 10 uM by radioactivity assay in presence of 50 uM ATP"}, "[3]": {"target": "Rho-associated protein kinase 2 (Homo sapiens) (UniProt O75116)", "assay": "Inhibition of ROCK2 assessed as residual activity at 10 uM by radioactivity assay in presence of 20 uM ATP"}, "[4]": {"assay": "Antiangiogenic activity in VEGF-stimulated HMEC1 assessed as reduction in total length of tube at 20 uM after 16 hrs by photographic analysis", "assay_type": "functional, Homo sapiens, HMEC-1", "design": "scale not given: the % may be the effect or the level left"}, "[5]": {"target": "Mitogen-activated protein kinase 14 (Homo sapiens) (UniProt Q16539)", "sequence (Q16539 whole entry)": "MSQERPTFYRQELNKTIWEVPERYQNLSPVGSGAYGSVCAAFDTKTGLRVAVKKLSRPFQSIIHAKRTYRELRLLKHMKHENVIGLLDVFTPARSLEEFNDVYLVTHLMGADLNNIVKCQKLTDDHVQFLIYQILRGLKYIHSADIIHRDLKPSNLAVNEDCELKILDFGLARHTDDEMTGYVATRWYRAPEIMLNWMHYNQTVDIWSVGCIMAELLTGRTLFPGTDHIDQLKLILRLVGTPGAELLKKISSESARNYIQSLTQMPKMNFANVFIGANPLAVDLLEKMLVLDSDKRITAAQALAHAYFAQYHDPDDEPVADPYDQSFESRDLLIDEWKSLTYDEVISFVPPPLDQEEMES", "assay": "Inhibition of p38alpha MAPK assessed as residual activity at 10 uM by radioactivity assay in presence of 50 uM ATP"}, "[6]": {"target": "Insulin-like growth factor 1 receptor (Homo sapiens) (UniProt P08069)", "assay": "Inhibition of IGF-1R assessed as residual activity at 10 uM by radioactivity assay in presence of 5 uM ATP"}, "[7]": {"system": "SW-620", "assay": "Cytotoxicity against human SW620 cells", "assay_type": "functional"}, "[8]": {"target": "Dual specificity mitogen-activated protein kinase kinase 1 (Homo sapiens) (UniProt Q02750)", "sequence (Q02750 whole entry)": "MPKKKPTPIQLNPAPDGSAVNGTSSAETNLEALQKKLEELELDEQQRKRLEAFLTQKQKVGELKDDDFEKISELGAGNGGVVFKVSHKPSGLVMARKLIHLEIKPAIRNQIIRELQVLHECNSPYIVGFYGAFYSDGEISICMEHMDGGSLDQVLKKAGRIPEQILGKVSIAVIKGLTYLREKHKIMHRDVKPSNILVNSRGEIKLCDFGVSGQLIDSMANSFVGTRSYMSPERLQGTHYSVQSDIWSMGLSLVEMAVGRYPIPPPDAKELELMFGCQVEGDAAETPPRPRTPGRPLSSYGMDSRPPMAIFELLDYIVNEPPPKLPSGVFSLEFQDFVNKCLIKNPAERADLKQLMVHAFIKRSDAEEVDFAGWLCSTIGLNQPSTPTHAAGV", "assay": "Inhibition of MKK1 assessed as residual activity at 10 uM by radioactivity assay in presence of 5 uM ATP"}, "[9]": {"target": "Insulin receptor-related protein (Homo sapiens) (UniProt P14616)", "assay": "Inhibition of IRR assessed as residual activity at 10 uM by radioactivity assay in presence of 5 uM ATP"}, "[10]": {"system": "K562", "assay": "Cytotoxicity against human K562 cells", "assay_type": "functional"}, "[11]": {"system": "UO-31", "assay": "Cytotoxicity against human UO31 cells", "assay_type": "functional"}, "[12]": {"target": "Mitogen-activated protein kinase 13 (Homo sapiens) (UniProt O15264)", "assay": "Inhibition of p38delta MAPK assessed as residual activity at 10 uM by radioactivity assay in presence of 5 uM ATP"}, "[13]": {"system": "NCI-H226", "assay": "Cytotoxicity against human NCI-H226 cells", "assay_type": "functional"}, "[14]": {"target": "Casein kinase II subunit alpha (Homo sapiens) (UniProt P68400)", "sequence (P68400 whole entry, looked up)": "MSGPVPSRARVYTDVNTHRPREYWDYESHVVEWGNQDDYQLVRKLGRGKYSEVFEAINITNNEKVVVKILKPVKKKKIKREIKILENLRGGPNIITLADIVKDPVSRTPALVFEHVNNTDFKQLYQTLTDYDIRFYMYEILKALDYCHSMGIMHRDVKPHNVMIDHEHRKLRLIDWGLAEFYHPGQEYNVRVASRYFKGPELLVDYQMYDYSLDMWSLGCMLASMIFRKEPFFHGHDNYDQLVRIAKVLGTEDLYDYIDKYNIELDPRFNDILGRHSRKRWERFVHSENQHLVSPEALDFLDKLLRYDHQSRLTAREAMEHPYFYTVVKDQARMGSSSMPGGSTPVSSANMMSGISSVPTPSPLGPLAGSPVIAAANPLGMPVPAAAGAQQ", "assay": "Inhibition of CK2alpha assessed as residual activity at 10 uM by radioactivity assay in presence of 20 uM ATP"}, "[15]": {"system": "COLO 205", "assay": "Cytotoxicity against human COLO205 cells", "assay_type": "functional"}, "[16]": {"assay": "Cytotoxicity against human Hs 578T cells", "assay_type": "functional"}, "[17]": {"target": "MAP/microtubule affinity-regulating kinase 3 (Homo sapiens) (UniProt P27448)", "assay": "Inhibition of MARK3 assessed as residual activity at 10 uM by radioactivity assay in presence of 5 uM ATP"}, "[18]": {"target": "Ribosomal protein S6 kinase alpha-3 (Homo sapiens) (UniProt P51812)", "sequence (P51812 whole entry)": "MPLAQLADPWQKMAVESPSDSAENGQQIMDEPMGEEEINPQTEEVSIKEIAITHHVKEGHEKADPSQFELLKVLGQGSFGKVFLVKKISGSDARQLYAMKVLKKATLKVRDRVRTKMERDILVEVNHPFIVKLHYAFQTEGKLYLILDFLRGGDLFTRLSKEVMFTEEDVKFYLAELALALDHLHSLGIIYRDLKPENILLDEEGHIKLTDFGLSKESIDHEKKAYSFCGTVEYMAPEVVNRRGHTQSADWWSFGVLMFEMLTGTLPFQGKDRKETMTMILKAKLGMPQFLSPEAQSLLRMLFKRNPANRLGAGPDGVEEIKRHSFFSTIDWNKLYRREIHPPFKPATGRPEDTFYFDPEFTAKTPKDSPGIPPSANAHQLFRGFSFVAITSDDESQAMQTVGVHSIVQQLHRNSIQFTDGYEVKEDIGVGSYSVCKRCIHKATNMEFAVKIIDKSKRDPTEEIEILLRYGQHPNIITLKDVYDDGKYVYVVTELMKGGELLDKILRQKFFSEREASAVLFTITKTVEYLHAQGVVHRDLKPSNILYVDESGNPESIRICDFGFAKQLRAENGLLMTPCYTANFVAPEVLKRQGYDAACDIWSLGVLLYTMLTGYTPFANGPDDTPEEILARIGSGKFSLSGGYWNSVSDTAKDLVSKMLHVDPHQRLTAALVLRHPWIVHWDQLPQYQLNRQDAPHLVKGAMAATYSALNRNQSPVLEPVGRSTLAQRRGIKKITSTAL", "assay": "Inhibition of RSK2 assessed as residual activity at 10 uM by radioactivity assay in presence of 50 uM ATP"}, "[19]": {"target": "Fibroblast growth factor receptor 1 (Homo sapiens) (UniProt P11362)", "assay": "Inhibition of FGF-R1 assessed as residual activity at 10 uM by radioactivity assay in presence of 20 uM ATP"}, "[20]": {"system": "786-0", "assay": "Cytotoxicity against human 786-0 cells", "assay_type": "functional"}, "[21]": {"target": "Cyclin-dependent kinase 7 (Homo sapiens) (UniProt P50613)", "assay": "Inhibition of CDK7-catalyzed RNA polymerase 2 phosphorylation at Ser5 in human HMEC1 cells at 5 to 40 uM after 2 hrs by immunoblotting", "assay_type": "cell-based"}, "[22]": {"target": "Mitogen-activated protein kinase 11 (Homo sapiens) (UniProt Q15759)", "sequence (Q15759 whole entry)": "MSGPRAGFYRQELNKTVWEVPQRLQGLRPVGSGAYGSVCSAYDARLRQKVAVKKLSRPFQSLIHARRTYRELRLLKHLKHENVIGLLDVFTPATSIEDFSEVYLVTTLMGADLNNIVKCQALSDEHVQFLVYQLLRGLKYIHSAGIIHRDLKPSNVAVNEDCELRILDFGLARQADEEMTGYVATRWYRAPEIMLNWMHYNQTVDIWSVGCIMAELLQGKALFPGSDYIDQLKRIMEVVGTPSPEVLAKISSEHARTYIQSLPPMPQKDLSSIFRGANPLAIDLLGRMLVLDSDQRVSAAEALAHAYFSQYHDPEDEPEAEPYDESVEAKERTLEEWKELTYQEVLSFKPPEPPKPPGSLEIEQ", "assay": "Inhibition of p38beta MAPK assessed as residual activity at 10 uM by radioactivity assay in presence of 20 uM ATP"}, "[23]": {"system": "A549", "assay": "Cytotoxicity against human A549 cells", "assay_type": "functional"}, "[24]": {"system": "M14", "assay": "Cytotoxicity against human M14 cells", "assay_type": "functional"}, "[25]": {"target": "RAC-alpha serine/threonine-protein kinase (Homo sapiens) (UniProt P31749)", "assay": "Inhibition of PKBalpha assessed as residual activity at 10 uM by radioactivity assay in presence of 5 uM ATP"}, "[26]": {"system": "CCRF-CEM", "assay": "Cytotoxicity against human CCRF-CEM cells", "assay_type": "functional"}, "[27]": {"target": "Mitogen-activated protein kinase 1 (Homo sapiens) (UniProt P28482)", "assay": "Inhibition of ERK2 assessed as residual activity at 10 uM by radioactivity assay in presence of 20 uM ATP"}, "[28]": {"target": "Inhibitor of nuclear factor kappa-B kinase subunit epsilon (Homo sapiens) (UniProt Q14164)", "assay": "Inhibition of IKK-epsilon assessed as residual activity at 10 uM by radioactivity assay in presence of 50 uM ATP"}, "[29]": {"target": "Serine/threonine-protein kinase PAK 4 (Homo sapiens) (UniProt O96013)", "assay": "Inhibition of PAK4 assessed as residual activity at 10 uM by radioactivity assay in presence of 5 uM ATP"}, "[30]": {"assay": "Inhibition of AMPK assessed as residual activity at 10 uM by radioactivity assay in presence of 50 uM ATP"}, "[31]": {"target": "Serine/threonine-protein kinase pim-3 (Homo sapiens) (UniProt Q86V86)", "assay": "Inhibition of PIM3 assessed as residual activity at 10 uM by radioactivity assay in presence of 20 uM ATP"}, "[32]": {"target": "Dual specificity protein kinase TTK (Homo sapiens) (UniProt P33981)", "sequence (P33981 whole entry)": "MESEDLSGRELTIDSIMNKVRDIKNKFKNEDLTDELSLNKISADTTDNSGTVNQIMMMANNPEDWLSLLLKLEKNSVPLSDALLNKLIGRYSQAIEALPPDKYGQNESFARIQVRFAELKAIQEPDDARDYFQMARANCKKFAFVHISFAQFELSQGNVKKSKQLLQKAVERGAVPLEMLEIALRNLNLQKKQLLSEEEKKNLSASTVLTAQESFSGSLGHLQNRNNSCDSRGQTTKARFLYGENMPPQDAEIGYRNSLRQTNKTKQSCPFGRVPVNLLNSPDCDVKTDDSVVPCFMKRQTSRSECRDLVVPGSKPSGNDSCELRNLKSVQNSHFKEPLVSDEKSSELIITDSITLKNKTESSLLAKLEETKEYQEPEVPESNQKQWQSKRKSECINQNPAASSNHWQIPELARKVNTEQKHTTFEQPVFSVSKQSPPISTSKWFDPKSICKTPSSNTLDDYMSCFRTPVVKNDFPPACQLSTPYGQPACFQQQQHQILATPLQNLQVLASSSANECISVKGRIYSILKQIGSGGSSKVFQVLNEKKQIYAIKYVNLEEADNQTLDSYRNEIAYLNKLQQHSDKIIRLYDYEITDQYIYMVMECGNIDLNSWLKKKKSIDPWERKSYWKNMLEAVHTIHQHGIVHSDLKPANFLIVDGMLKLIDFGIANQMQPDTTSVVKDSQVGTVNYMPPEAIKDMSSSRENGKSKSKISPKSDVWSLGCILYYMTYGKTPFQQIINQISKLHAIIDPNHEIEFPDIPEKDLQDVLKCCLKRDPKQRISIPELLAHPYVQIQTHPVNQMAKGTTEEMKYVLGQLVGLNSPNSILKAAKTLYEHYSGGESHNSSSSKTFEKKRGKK", "assay": "Inhibition of TTK assessed as residual activity at 10 uM by radioactivity assay in presence of 20 uM ATP"}, "[33]": {"target": "Receptor tyrosine-protein kinase erbB-4 (Homo sapiens) (UniProt Q15303)", "assay": "Inhibition of HER4 assessed as residual activity at 10 uM by radioactivity assay in presence of 5 uM ATP"}, "[34]": {"target": "Serine/threonine-protein kinase Nek6 (Homo sapiens) (UniProt Q9HC98)", "assay": "Inhibition of NEK6 assessed as residual activity at 10 uM by radioactivity assay in presence of 50 uM ATP"}, "[35]": {"target": "Tyrosine-protein kinase SYK (Homo sapiens) (UniProt P43405)", "assay": "Inhibition of SYK assessed as residual activity at 10 uM by radioactivity assay in presence of 20 uM ATP"}, "[36]": {"target": "Tyrosine-protein kinase Yes (Homo sapiens) (UniProt P07947)", "sequence (P07947 2-543 limits assumed)": "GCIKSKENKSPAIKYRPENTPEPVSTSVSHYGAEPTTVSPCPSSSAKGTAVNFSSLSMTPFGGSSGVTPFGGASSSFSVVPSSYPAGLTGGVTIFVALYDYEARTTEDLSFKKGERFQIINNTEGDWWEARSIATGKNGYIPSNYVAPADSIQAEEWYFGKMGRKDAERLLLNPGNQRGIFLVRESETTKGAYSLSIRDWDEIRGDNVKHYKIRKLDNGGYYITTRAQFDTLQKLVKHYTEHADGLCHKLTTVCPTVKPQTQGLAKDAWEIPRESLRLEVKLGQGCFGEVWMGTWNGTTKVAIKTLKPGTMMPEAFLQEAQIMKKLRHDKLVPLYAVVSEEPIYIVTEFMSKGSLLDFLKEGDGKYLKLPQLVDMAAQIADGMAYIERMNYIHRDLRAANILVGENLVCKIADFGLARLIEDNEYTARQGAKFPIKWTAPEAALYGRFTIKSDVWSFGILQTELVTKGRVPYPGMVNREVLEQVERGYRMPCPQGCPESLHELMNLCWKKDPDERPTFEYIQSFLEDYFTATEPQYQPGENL", "assay": "Inhibition of YES1 assessed as residual activity at 10 uM by radioactivity assay in presence of 20 uM ATP"}, "[37]": {"system": "KM12", "assay": "Cytotoxicity against human KM12 cells", "assay_type": "functional"}, "[38]": {"system": "HUVEC", "assay": "Antiproliferative activity against HUVEC cells assessed as decrease in cell viability at >50 uM within 72 hrs by calcein AM staining-based fluorescence assay", "details": "human"}, "[39]": {"target": "High affinity nerve growth factor receptor (Homo sapiens) (UniProt P04629)", "assay": "Inhibition of TrkA assessed as residual activity at 10 uM by radioactivity assay in presence of 20 uM ATP"}, "[40]": {"target": "Ribosomal protein S6 kinase beta-1 (Homo sapiens) (UniProt P23443)", "assay": "Inhibition of S6K1 assessed as residual activity at 10 uM by radioactivity assay in presence of 20 uM ATP"}},
  "note": "Calls of active or inactive are those of the source. The calls are words filed in the database; no cut-off is given here.",
  "data": [
    {"compound": "Nc1n[nH]c(N)c1/N=N/c1ccc(O)cc1", "values": [
      {"measurement": "inhibition", "setting": "[1]", "value": "Dose-dependent effect"},
      {"measurement": "Activity", "setting": "[2]", "value": 62, "unit": "%"},
      {"measurement": "Activity", "setting": "[3]", "value": 51, "unit": "%"},
      {"measurement": "Activity", "setting": "[4]", "value": 20, "unit": "%"},
      {"measurement": "Activity", "setting": "[5]", "value": 101, "unit": "%"},
      {"measurement": "Activity", "setting": "[6]", "value": 48, "unit": "%"},
      {"measurement": "GI50", "setting": "[7]", "value": 26.3, "unit": "µM"},
      {"measurement": "Activity", "setting": "[8]", "value": 60, "unit": "%"},
      {"measurement": "Activity", "setting": "[9]", "value": 29, "unit": "%"},
      {"measurement": "GI50", "setting": "[10]", "value": 9.2, "unit": "µM"},
      {"measurement": "GI50", "setting": "[11]", "value": 13.7, "unit": "µM"},
      {"measurement": "Activity", "setting": "[12]", "value": 77, "unit": "%"},
      {"measurement": "GI50", "setting": "[13]", "value": 17.7, "unit": "µM"},
      {"measurement": "Activity", "setting": "[14]", "value": 48, "unit": "%"},
      {"measurement": "GI50", "setting": "[15]", "value": 18.9, "unit": "µM"},
      {"measurement": "GI50", "setting": "[16]", "value": 21.8, "unit": "µM"},
      {"measurement": "Activity", "setting": "[17]", "value": 50, "unit": "%"},
      {"measurement": "Activity", "setting": "[18]", "value": 96, "unit": "%"},
      {"measurement": "Activity", "setting": "[19]", "value": 68, "unit": "%"},
      {"measurement": "GI50", "setting": "[20]", "value": 26.2, "unit": "µM"},
      {"measurement": "inhibition", "setting": "[21]", "value": "Active"},
      {"measurement": "Activity", "setting": "[22]", "value": 102, "unit": "%"},
      {"measurement": "GI50", "setting": "[23]", "value": 22.5, "unit": "µM"},
      {"measurement": "GI50", "setting": "[24]", "value": 15.9, "unit": "µM"},
      {"measurement": "Activity", "setting": "[25]", "value": 100, "unit": "%"},
      {"measurement": "GI50", "setting": "[26]", "value": 20, "unit": "µM"},
      {"measurement": "Activity", "setting": "[27]", "value": 106, "unit": "%"},
      {"measurement": "Activity", "setting": "[28]", "value": 45, "unit": "%"},
      {"measurement": "Activity", "setting": "[29]", "value": 79, "unit": "%"},
      {"measurement": "Activity", "setting": "[30]", "value": 82, "unit": "%"},
      {"measurement": "Activity", "setting": "[31]", "value": 19, "unit": "%"},
      {"measurement": "Activity", "setting": "[32]", "value": 55, "unit": "%"},
      {"measurement": "Activity", "setting": "[33]", "value": 59, "unit": "%"},
      {"measurement": "Activity", "setting": "[34]", "value": 114, "unit": "%"},
      {"measurement": "Activity", "setting": "[35]", "value": 94, "unit": "%"},
      {"measurement": "Activity", "setting": "[36]", "value": 79, "unit": "%"},
      {"measurement": "GI50", "setting": "[37]", "value": 17.1, "unit": "µM"},
      {"measurement": "Activity", "setting": "[38]", "value": "Non-toxic"},
      {"measurement": "Activity", "setting": "[39]", "value": 98, "unit": "%"},
      {"measurement": "Activity", "setting": "[40]", "value": 79, "unit": "%"}
    ]}
  ]
}
